Assay results: the NIST ThermoML archive (doi:10.1021/je200121f)
Values joined by “and” are separate entries in the source; they are usually repeats but may differ in a detail not shown here. Equal values may be shown once.

Legend:
[1] = refractive index (Na D-line) (dimensionless); settings: 101.33 kPa, Liquid, Standard Abbe refractometry
[2] = for surface tension liquid-gas: Ring tensiometer; for viscosity / speed of sound / mass density: 101 kPa, Liquid; for viscosity: Capillary tube (Ostwald / Ubbelohde) method; for speed of sound: Sing-around technique in a fixed-path interferometer; for mass density: Vibrating tube method
[3] = xn = mol fraction of the nth substance listed; settings: x1 = 1; for surface tension liquid-gas: Ring tensiometer; for viscosity / speed of sound / mass density: 101 kPa, Liquid; for viscosity: Capillary tube (Ostwald / Ubbelohde) method; for speed of sound: Sing-around technique in a fixed-path interferometer; for mass density: Vibrating tube method
[4] = refractive index (Na D-line) (dimensionless); xn = mol fraction of the nth substance listed; settings: 101 kPa, Liquid, Standard Abbe refractometry, x1 = 1

C[C@H](O)CN [(2S)-1-amino-2-propanol]
Settings	mass density, [2] [kg/m3]	refractive index, [1]	speed of sound, [2] [m/s]	surface tension liquid-gas, [2] [mN/m]	viscosity, [2] [mPa·s]
293.15 K	960.8	1.448	1560.8	37.6	31.67
303.15 K	952.8	1.4442	1528.3	36.9	17.71
313.15 K	944.7	1.4401	1495.7	36.3	10.65
323.15 K	936.5	1.436	1462.9	35.9	6.961

CC(O)CNCC(C)O (stereo not given) [N-(2-hydroxypropyl)-2-hydroxy-1-propanamine]
323.15 K
Settings	mass density [kg/m3]	refractive index	speed of sound [m/s]	surface tension liquid-gas [mN/m]	viscosity [mPa·s]
[1]	–	1.4512	–	–	–
[2]	984.1	–	1420.3	34.5	125.73

CN1CCCC1=O [N-methylpyrrolidone]
Settings	mass density, [2] [kg/m3]	refractive index, [1]	speed of sound, [2] [m/s]	surface tension liquid-gas, [2]	viscosity, [2] [mPa·s]
293.15 K	1033.6	1.4688	1567.9	42.7 mN/m	1.899
303.15 K	1024.7	1.4657	1529.7	41.5 mN/m and 41.3 mN/m	1.592
313.15 K	1015.7	1.4621	1491.2	40.8 mN/m and 41 mN/m	1.353
323.15 K	1006.8	1.4579	1454.6	40 mN/m and 39.8 mN/m	1.17

CN1CCCC1=O [N-methylpyrrolidone] + CC(O)CNCC(C)O
Settings	mass density, [3] [kg/m3]	refractive index, [4]	speed of sound, [3] [m/s]	surface tension liquid-gas, [3] [mN/m]	viscosity, [3] [mPa·s]
293.15 K	1033.6	1.4688	1567.9	42.7	1.899
303.15 K	1024.7	1.4657	1529.7	41.3	1.592
313.15 K	1015.7	1.4621	1491.2	41	1.353
323.15 K	1006.8	1.4579	1454.6	39.8	1.17

CN1CCCC1=O [N-methylpyrrolidone] + C[C@H](O)CN
Settings	mass density, [3] [kg/m3]	refractive index, [4]	speed of sound, [3] [m/s]	surface tension liquid-gas, [3] [mN/m]	viscosity, [3] [mPa·s]
293.15 K	1033.6	1.4688	1567.9	42.7	1.899
303.15 K	1024.7	1.4657	1529.7	41.5	1.592
313.15 K	1015.7	1.4621	1491.2	40.8	1.353
323.15 K	1006.8	1.4579	1454.6	40	1.17
